Drawing on patent US20110201603A1, “Novel Acylaminobenzamide Derivatives” (Bayer CropScience AG, priority 2008, published 2011), this text covers insecticidal activity for 45 molecules.

One assay relates to cucurbit leaf beetle (Aulacophora femoralis). The assay can be described thus: Test against cucurbit leaf beetle (Aulacophora femoralis), leaf dip. It counts as in vivo. The note with it: active compound concentration of 100 ppm; second-instar larvae on cucumber leaves; after 7 days. On the procedure: (§1) Unless not mentioned otherwise, the test solutions were prepared as follows:
(§2) Containing as solvent: Dimethylformamide, 3 parts by weight; and as emulsifier: Polyoxyethylene alkyl phenyl ether, 1 part by weight
(§3) To prepare the test solution, 1 part by weight of an active compound is mixed with the above-mentioned amount of solvent containing the above-mentioned amount of emulsifier, and the mixture is diluted with water to the desired concentration.
Cucumber leaves were immersed in the test solution at the appropriate concentration, and the leaves were dried in air. The leaves were then placed in a plastic cup containing sterilized black soil, and five second-instar larvae of cucurbit leaf beetle were released therein. The plastic cup was placed in a temperature-controlled chamber at 25° C. After 7 days, the number of dead larvae was counted, and thus the insecticidal activity was calculated. An insecticidal activity of 100% means that all beetles were killed, whereas an insecticidal activity of 0% means that no beetle was killed.
With `Cc1cc(C(Oc2ccc(Cl)cc2)(C(F)(F)F)C(F)(F)F)cc(C)c1NC(=O)c1cccc(NC(=O)c2cccnc2Cl)c1` [1-160], the insecticidal activity was 100%. The same measure, in the same setting: for `CCc1cc(C(N2CC=CCC2)(C(F)(F)F)C(F)(F)F)cc(C)c1NC(=O)c1cccc(NC(=O)c2cccnc2Cl)c1` [2-180] the value was 100%; for `CCc1cc(C(Oc2ccc(Br)cc2)(C(F)(F)F)C(F)(F)F)cc(CC)c1NC(=O)c1cccc(NC(=O)c2cccnc2Cl)c1` [1-177], 100%; for `CCc1cc(C(n2cc(C(F)(F)F)cn2)(C(F)(F)F)C(F)(F)F)cc(C)c1NC(=O)c1cccc(NC(=O)c2cccnc2Cl)c1` [2-105, 2-chloro-N-{3-[(2-ethyl-4-{1,1,1,3,3,3-hexafluoro-2-[4-(trifluoromethyl)-1H-pyrazol-1-yl]propan-2-yl}-6-methylphenyl)carbamoyl]-phenyl}pyridine-3-carboxamide], 100%.

Turning to `C#CCOC(c1cc(I)c(NC(=O)c2cccc(NC(=O)c3ccccc3)c2)c(I)c1)(C(F)(F)F)C(F)(F)F` [1-79], the insecticidal activity was determined as 100%. Still for that read-out and setting: with `Cc1cc(C(n2cc(Cl)cn2)(C(F)(F)F)C(F)(F)F)cc(Br)c1NC(=O)c1cccc(NC(=O)c2c(F)cccc2F)c1` [2-41] the figure was 100%; with `O=C(Nc1c(Br)cc(C(c2ccccc2)(n2ccc(C(F)(F)F)n2)C(F)(F)F)cc1Br)c1cccc(NC(=O)c2cccnc2Cl)c1` (single isomer, unassigned) [2-100], 100%. For `Cc1cc(C(n2cc(I)c(C(F)(F)F)n2)(C(F)(F)F)C(F)(F)F)cc(C)c1NC(=O)c1cccc(NC(=O)c2cccnc2Cl)c1` [2-119], the insecticidal activity was found to be 100%.

With `Cc1cc(C(n2ccc(Cl)n2)(C(F)(F)F)C(F)(F)F)cc(C)c1NC(=O)c1cccc(NC(=O)c2cccnc2Cl)c1` [2-7], the insecticidal activity stood at 100%. In turn, `CCc1cc(C(Oc2ccccc2)(C(F)(F)F)C(F)(F)F)cc(C)c1NC(=O)c1cccc(NC(=O)c2cccnc2Cl)c1` [1-105] yielded an insecticidal activity of 100%.

The next assay relates to tobacco cutworm (Spodoptera litura) larvae. The assay can be described thus: Test against tobacco cutworm (Spodoptera litura) larvae, leaf dip. Particulars: active compound concentration of 100 ppm; third-instar larvae on sweet potato leaves; after 7 days. It counts as in vivo. On the procedure: as §1, §2, §3
The leaves of sweet potato were immersed in the test solution at the appropriate concentration, and the leaves were dried in air. The leaves were then placed in a petri dish having a diameter of 9 cm, and ten third-instar larvae of tobacco cutworm were released therein. The petri dish was placed in a temperature-controlled chamber at 25° C. After 2 days and 4 days sweet potato leaves were additionally added. After 7 days, the number of dead larvae was counted to calculate the insecticidal activity. An insecticidal activity of 100% means that all larvae were killed, whereas an insecticidal activity of 0% means that no larva was killed. In the current test, the results of two petri dishes for each partition were averaged.
In the case of `Cc1cc(C(Oc2ccc(Cl)cc2)(C(F)(F)F)C(F)(F)F)cc(C)c1NC(=O)c1cccc(NC(=O)c2cccnc2Cl)c1` [1-160], the insecticidal activity is listed as 100%. Still for that read-out and setting: with `CCc1cc(C(n2cc(Cl)cn2)(C(F)(F)F)C(F)(F)F)cc(C)c1NC(=O)c1cccc(NC(=O)c2ccc(F)cc2F)c1` [2-38] the figure was 100%. The same measure, in the same setting: for `CCc1cc(C(n2cc(Cl)cn2)(C(F)(F)F)C(F)(F)F)cc(C)c1NC(=O)c1cccc(NC(=O)c2ccc(F)cc2)c1` [2-36] the value was 100%; for `Cc1cc(C(n2ccc(C(F)(F)C(F)(F)F)n2)(C(F)(F)F)C(F)(F)F)cc(C)c1NC(=O)c1cccc(NC(=O)c2cccnc2Cl)c1` [2-107], 100%. In the case of `Cc1cc(C(n2ccc(Br)n2)(C(F)(F)F)C(F)(F)F)cc(C)c1NC(=O)c1cccc(NC(=O)c2cccnc2Cl)c1` [2-76, N-[3-({4-[2-(3-bromo-1H-pyrazol-1-yl)-1,1,1,3,3,3-hexafluoropropan-2-yl]-2,6-dimethylphenyl}carbamoyl)phenyl]-2-chloropyridine-3-carboxamide], the insecticidal activity turned out to be 100%. Still for that read-out and setting: with `CCc1cc(C(N2CC=CCC2)(C(F)(F)F)C(F)(F)F)cc(C)c1NC(=O)c1cccc(NC(=O)c2cccnc2Cl)c1` [2-180] the figure was 100%. Molecule `CCc1cc(C(Oc2ccc(Br)cc2)(C(F)(F)F)C(F)(F)F)cc(CC)c1NC(=O)c1cccc(NC(=O)c2cccnc2Cl)c1` [1-177] returned an insecticidal activity of 100%. Still for that read-out and setting: for `Cc1cc(C(n2nc(C(F)(F)F)cc2C(F)(F)F)C(F)(F)F)cc(C)c1NC(=O)c1cccc(NC(=O)c2cccnc2Cl)c1` (stereo not drawn) [2-123, N-{3-[(4-{1-[3,5-bis(trifluoromethyl)-1H-pyrazol-1-yl)-2,2,2-trifluoroethyl}-2,6-dimethylphenyl)carbamoyl]phenyl}-2-chloropyridine-3-carboxamide] the value was 100%; for `CCc1cc(C(n2cc(C(F)(F)F)cn2)(C(F)(F)F)C(F)(F)F)cc(C)c1NC(=O)c1cccc(NC(=O)c2cccnc2Cl)c1` [2-105, 2-chloro-N-{3-[(2-ethyl-4-{1,1,1,3,3,3-hexafluoro-2-[4-(trifluoromethyl)-1H-pyrazol-1-yl]propan-2-yl}-6-methylphenyl)carbamoyl]-phenyl}pyridine-3-carboxamide], 100%.

Turning to `O=C(Nc1c(Br)cc(C(c2ccccc2)(n2ccc(C(F)(F)F)n2)C(F)(F)F)cc1Br)c1cccc(NC(=O)c2cccnc2Cl)c1` (single isomer, unassigned) [2-99], the insecticidal activity came to 100%. `C#CCOC(c1cc(I)c(NC(=O)c2cccc(NC(=O)c3ccccc3)c2)c(I)c1)(C(F)(F)F)C(F)(F)F` [1-79]: the insecticidal activity was determined as 100%. In turn, `Cc1cc(C(n2cc(Cl)cn2)(C(F)(F)F)C(F)(F)F)cc(Br)c1NC(=O)c1cccc(NC(=O)c2c(F)cccc2F)c1` [2-41] registered an insecticidal activity of 100%. The same measure, in the same setting: with `Cc1cc(C(Oc2cccc(C(F)(F)F)c2)(C(F)(F)F)C(F)(F)F)cc(C)c1NC(=O)c1cccc(NC(=O)c2cccnc2Cl)c1` [1-167] the figure was 100%. On the same count and under the same terms, for `CCc1cc(C(ON=Cc2ccccc2)(C(F)(F)F)C(F)(F)F)cc(C)c1NC(=O)c1cccc(NC(=O)c2cccnc2Cl)c1` [1-125] the value was 100%. On the same count and under the same terms, for `CCOC(c1cc(I)c(NC(=O)c2cccc(NC(=O)CCCl)c2)c(I)c1)(C(F)(F)F)C(F)(F)F` [1-23] the value was 100%; for `Cc1cc(C(n2ccc(C(Cl)Cl)n2)(C(F)(F)F)C(F)(F)F)cc(C)c1NC(=O)c1cccc(NC(=O)c2cccnc2Cl)c1` [2-106], 100%.

In turn, `CCc1cc(C(Oc2ccnc(C(F)(F)F)c2)(C(F)(F)F)C(F)(F)F)cc(C)c1NC(=O)c1cccc(NC(=O)c2cccnc2Cl)c1` [1-112] came in with an insecticidal activity of 100%. Still for that read-out and setting: with `Cc1cc(C(Oc2ccnc(C(F)(F)F)c2)(C(F)(F)F)C(F)(F)F)cc(C)c1NC(=O)c1cccc(NC(=O)c2cccnc2Cl)c1` [1-111] the figure was 100%. The same measure, in the same setting: with `Cc1cc(C(Oc2ccc(C#N)cc2)(C(F)(F)F)C(F)(F)F)cc(C)c1NC(=O)c1cccc(NC(=O)c2cccnc2Cl)c1` [1-180] the figure was 100%; with `Cc1cc(C(n2nc(C(F)(F)F)cc2C(F)(F)F)(C(F)(F)F)C(F)(F)F)cc(C)c1NC(=O)c1cccc(NC(=O)c2cccnc2F)c1` [2-125], 100%. On the same count and under the same terms, for `CCc1cc(C(n2cc(Cl)cn2)(C(F)(F)F)C(F)(F)F)cc(C)c1NC(=O)c1cccc(NC(=O)c2ccccc2F)c1` [2-30] the value was 100%; for `Cc1cc(C(n2ncnn2)(C(F)(F)F)C(F)(F)F)cc(C)c1NC(=O)c1cccc(NC(=O)c2cccnc2Cl)c1` [2-154], 100%; for `CCc1cc(C(ON=Cc2ccc(C)cc2)(C(F)(F)F)C(F)(F)F)cc(C)c1NC(=O)c1cccc(NC(=O)c2cccnc2Cl)c1` [1-149], 100%. Take `Cc1cc(C(Oc2ccc(Cl)cc2)(C(F)(F)F)C(F)(F)F)ccc1NC(=O)c1cccc(NC(=O)c2cccnc2Cl)c1` [1-201]: the insecticidal activity is reported as 100%. The same measure, in the same setting: for `Cc1cc(C(n2cc(I)cn2)(C(F)(F)F)C(F)(F)F)cc(C)c1NC(=O)c1cccc(NC(=O)c2cccnc2Cl)c1` [2-95] the value was 100%; for `CCc1cc(C(Oc2ccc(Cl)nc2)(C(F)(F)F)C(F)(F)F)cc(C)c1NC(=O)c1cccc(NC(=O)c2cccnc2Cl)c1` [1-181], 100%; for `CCCOC(c1cc(I)c(NC(=O)c2cccc(NC(=O)c3ccc(C)nc3Cl)c2)c(I)c1)(C(F)(F)F)C(F)(F)F` [1-63], 100%.

`CCc1cc(C(N2CC=CC2)(C(F)(F)F)C(F)(F)F)cc(C)c1NC(=O)c1cccc(NC(=O)c2cccnc2Cl)c1` [2-170] displayed an insecticidal activity of 100%.

`CCc1cc(C(n2cc(Cl)cn2)(C(F)(F)F)C(F)(F)F)cc(C)c1NC(=O)c1cccc(NC(=O)c2cc(F)ccc2F)c1` [2-39] displayed an insecticidal activity of 100%.

In the case of `CCc1cc(C(n2cc(Cl)cn2)(C(F)(F)F)C(F)(F)F)cc(C)c1NC(=O)c1cccc(NC(=O)c2cccc(F)c2F)c1` [2-37], the insecticidal activity is listed as 100%. Still for that read-out and setting: with `Cc1cc(C(n2cnc(C(F)(F)F)c2)(C(F)(F)F)C(F)(F)F)cc(C)c1NC(=O)c1cccc(NC(=O)c2cccnc2Cl)c1` [2-142] the figure was 100%; with `CCc1cc(C(Oc2cccc(C(F)(F)F)c2)(C(F)(F)F)C(F)(F)F)cc(C)c1NC(=O)c1cccc(NC(=O)c2cccnc2Cl)c1` [1-110], 100%; with `CCc1cc(C(n2cc(Cl)cn2)(C(F)(F)F)C(F)(F)F)cc(C)c1NC(=O)c1cccc(NC(=O)c2cccc(F)c2)c1` [2-35], 100%. The same measure, in the same setting: with `CCc1cc(C(n2cc(Cl)cn2)(C(F)(F)F)C(F)(F)F)cc(C)c1NC(=O)c1cccc(NC(=O)c2c(F)cccc2F)c1` [2-40] the figure was 100%; with `Cc1cc(C(n2cc(Cl)c(C(F)(F)F)n2)(C(F)(F)F)C(F)(F)F)cc(C)c1NC(=O)c1cccc(NC(=O)c2cccnc2Cl)c1` [2-118], 100%; with `CCc1cc(C(OCC(F)(F)F)(C(F)(F)F)C(F)(F)F)cc(C)c1NC(=O)c1cccc(N)c1` [11-26], 100%. Same read-out and setting: with `Cc1cc(C(n2cc(Br)c(Br)n2)(C(F)(F)F)C(F)(F)F)cc(C)c1NC(=O)c1cccc(NC(=O)c2cccnc2Cl)c1` [2-115] the figure was 100%. On to `CCc1cc(C(n2cncn2)(C(F)(F)F)C(F)(F)F)cc(C)c1NC(=O)c1cccc(NC(=O)c2cccnc2Cl)c1` [2-149], for which the insecticidal activity is given as 100%. On to `CSCCOC(c1cc(I)c(NC(=O)c2cccc(NC(=O)c3cccnc3Cl)c2)c(I)c1)(C(F)(F)F)C(F)(F)F` [1-104], for which the insecticidal activity is recorded as 100%.

Take `Cc1cc(C(n2ccc(C(F)(F)F)n2)(C(F)(F)F)C(F)(F)F)cc(C)c1NC(=O)c1cccc(NC(=O)c2cccnc2F)c1` [2-98]: the insecticidal activity was found to be 100%. On the same count and under the same terms, with `CCc1cc(C(ON=Cc2ccc(OC)cc2)(C(F)(F)F)C(F)(F)F)cc(C)c1NC(=O)c1cccc(NC(=O)c2cccnc2Cl)c1` [1-150] the figure was 100%.
